# Measurements: PMC11679793, “Structure-Activity Relationship Study of Majusculamide D: Overcoming Metabolic Instability and Severe Toxicity with a Fluoro Analogue” (Marine Drugs, 2024)
# Like-named read-outs stand apart in the source and are kept apart here.
# Columns and labels:
# pancreatic cancer cells = assay: EdU assay; format: cell-based; conditions: 48 h treatment, concentration-dependent, vs control
# From the text: The EdU ([…]) assay is a well-established method that assesses cell proliferation activity by detecting DNA synthesis. The results of EdU assays indicated […]
# (§1) concentration-dependent manner. […]
# the DNA synthesis of pancreatic cancer cells, thereby inhibiting the proliferation of pancreatic cancer cells, which was consistent with the results of clone formation assays. […]
# Snail and TCF8/ZEB1 both […]
# are transcription factors that can inhibit the expression of E-cadherin and promote the EMT process. Vimentin is a marker protein of mesenchymal cells, and its expression increases during EMT, further contribute to the process of metastasis by supporting the structural changes needed for cell migration and invasion.
# We examined the effects of compound 1a on above key proteins involved in tumor progression pathways employing Western blot analysis in PANC-1 cells and MIA PaCa-2 […]
# 1a might inhibit cancer cell invasion and migration by enhancing cell-cell adhesion and barrier function. Conversely, the expression levels of β-catenin, Fibronectin, Snail, […]
# Cells were resuspended at a concentration of 300 cells/mL, and 2 mL of the suspension was added to each well of a 6-well plate. […] The colonies were imaged under a microscope and quantified using ImageJ. […]
# [1] = Preliminary water solubility test; format: physicochemical; conditions: 25 °C, ultrasonic treatment 30 min, visual
# PANC-1 cells = assay: MTT cell activity assay (inhibitory activity against PANC-1 cells); format: cell-based
# Method: A total of 3000 PANC-1 cells were resuspended in 200 μL of culture medium and seeded into 96-well plates. After 24 h, the cells were treated with the compound and incubated for an additional 72 h. Following the incubation, 20 μL of 5 mg/mL MTT solution (Solarbio, China) was added to each well in the dark, and the cells were incubated for another 4 h. After incubation, the culture medium was discarded, and the wells were washed with PBS to remove any residual medium. Then, 200 μL of DMSO was added to each well to fully dissolve the formazan crystals, and the solution was mixed thoroughly. The absorbance was measured at 492 nm/570 nm, and the data were analyzed using GraphPad Prism.
# [2] = test system: PANC-1 and MIA PaCa-2 pancreatic cancer cells; assay: Wound healing assay; format: cell-based; conditions: PANC-1 and MIA PaCa-2, 24 h, concentration-dependent, vs control
# From the text: Figure S225. Compound 1a inhibited the migration, invasion and proliferation of pancreatic cancer cells. (A) The results of wound healing assays to investigate the effects of 1a on the migration ability against PANC-1 and MIA PaCa-2 pancreatic cancer cells. (B) The results of transwell assays to investigate the effects of 1a on the invasion ability. (C) Effects of 1a on the clonogenic ability. (D) EdU assays of 1a. (E) Western blot assays of 1a on biomarkers. Data are presented as mean ± SD, n […]
# Approximately 50% of pancreatic cancer patients show distant metastases at the time […]
# disease. To evaluate the inhibitory effects of majusculamide D (1a) on the migratory capabilities of pancreatic cancer cells (PANC-1 and MIA PaCa-2), wound healing assays […]
# were performed (Figure S1A). […]
# as §1
# inhibited the migration of these pancreatic cancer cells. Further validation with transwell […]
# concentration-dependent manner compared to the control group (Figure S1B). Since cell migration and invasion are correlated with cancer metastasis, compound 1a may delay the progression of tumors’ local spread and distant metastasis by inhibiting the migration and invasion ability of pancreatic cancer cells. […]
# Images were taken at 0 hour and 24 hours after treatment to record and analyzed by measuring the area of the wound at each time point using ImageJ. […]
smiles,measurement,setting,value
"CCCCC(C)CC(C)C(=O)N(C)C(Cc1ccc(OC)cc1)C(=O)NC(C(=O)N(C)C(C(=O)N1CC(O)CC1C(=O)N1C(=O)C=CC1C)C(C)C)C(C)OC(C)=O (centres unmarked) [Compound 1a, Majusculamide D]","cell proliferation ability (EdU, DNA synthesis)",pancreatic cancer cells,decreased in comparison to the control group
same,Solubility (mg/mL),[1],Insoluble
same,IC50,"PANC-1 cells; Homo sapiens, PANC-1, 72 h, read-out: IC50 (nM), inhibitory activity against PANC-1 cells (Table 2), PANC-1 cells, 72 h incubation, mean ± SD, n = 3, Table 2 series",1.99 ± 0.68 nM
same,IC50,"PANC-1 cells; read-out: IC50 (nM), inhibitory activity against PANC-1 cells (Table 1), PANC-1 cells, 72 h incubation, mean ± SD, n = 3",1.88 ± 0.82 nM
same,scratch wound healing rate (migration),[2],significantly reduced the scratch wound healing rate
